25 molecules from patent US20260364068A1, “ANTIVIRAL USE OF HETEROARYL DERIVATIVE COMPOUND” (UIF (University Industry Foundation), Yonsei University, priority 2022, published 2026) can be followed below.

Each structure is given as a SMILES string. Bounds are passed on as bounds.

The data set in a line: Cell viability measurement (MTS), Calu-3 cells. The class given is cell-based. The note with it: human. On the procedure:
Experimental Example 3: Cell Viability Measurement
Vero cell line (VERO01WCB-1201, Ministry of Food and Drug Safety, Republic of Korea), Calu-3 cell line (KCLB #30055, Korea Cell Line Bank (KCLB), Republic of Korea), CellTiter 96® AQueous One Solution Cell Proliferation Assay kit (Promega, cat. #G3582), and Infinite M200 microplate reader (Tecan).
Calu-3 cells were cultured at 37 °C and 5% CO2 in MEM medium supplemented with 10% fetal bovine serum, 2.2 g/L sodium bicarbonate, 1% 100 units/mL penicillin, and 100 μg/mL streptomycin.
Vero cells or Calu-3 cells were seeded in 96-well microplates and cultured for 24 hours until the cell confluency reached 20%. After the incubation, compounds were treated in DMSO at concentrations (1, 3, and 10 μM) to reach 0.5% v/v in each well, and reacted at 37 °C for 48 hours. Into each well of the incubated 96-well microplate, 3-(4,5-dimethylthiazol-2-yl)-5-(3-carboxymethoxyphenyl)-2-(4-sulfophenyl)-2H-tetrazolium salt (MTS) assay solution [CellTiter 96® AQueous One Solution Cell Proliferation Assay kit (Promega)] mixed with DMEM medium at a ratio of 1:5, was dispensed at 100 μL/well and incubated at 37 °C for 1 hour. The 490 nm and 690 nm absorbance was then measured using an Infinite M200 instrument.
The cell viability (also, referred to as cell survival rate) (%) by compound treatment was calculated using the following analysis method. The 690 nm background absorbance value was subtracted from the measured 490 nm absorbance value. Then, to obtain the cell viability of each test group, the viability of the DMSO-treated group that was not treated with the compound was set to 100% and then the relative viability 1 of each compound was calculated. Two to six repeated tests were performed to obtain the results, and the mean values of the results were categorized into the following ranges and shown in Table 5 below (A: 80% survived, B: 50-80% survived, N/A: not tested)

Turning to `c1cc(Nc2ncc(-c3cncnc3)cn2)cc(-c2nc3ccccc3[nH]2)c1` [Example 70, N-[3-(1H-benzo[d]imidazol-2-yl)phenyl]-[5,5′-bipyrimidin]-2-amine], the viability at 48 h, 1 µM is above 80% and the viability at 48 h, 3 µM lay within 50 to 80%.

Regarding `FC(F)(F)Oc1ccc2nc(-c3cccc(Nc4ncc(-c5ccccn5)cn4)c3)[nH]c2c1` [Example 118, 5-(2-pyridyl)-N-[3-[6-(trifluoromethoxy)-1H-benzo[d]imidazol-2-yl]phenyl]pyrimidin-2-amine], the viability at 48 h, 10 µM was in the range of 50 to 80%.

Molecule `Fc1cc2[nH]c(-c3cccc(Nc4ncc(-c5ccccn5)cn4)c3)nc2cn1` [Example 286, N-(3-(6-fluoro-1H-imidazo[4,5-c]pyridin-2-yl)phenyl)-5-(pyridin-2-yl)pyrimidin-2-amine] yielded a viability at 48 h, 10 µM above 80%.

In turn, `c1cc(Nc2ccc(-c3ccnnc3)cc2)cc(-c2nc3ccccc3[nH]2)c1` [Example 94, 3-(1H-benzo[d]imidazol-2-yl)-N-(4-pyridazin-4-ylphenyl)aniline] returned a viability at 48 h, 1 µM of 50 to 80%.

In turn, `Cc1cccc2nc(-c3cccc(Nc4ccc(-c5cccnn5)cc4)c3)[nH]c12` [Example 101, 3-(7-methyl-1H-benzo[d]imidazol-2-yl)-N-(4-pyridazin-3-ylphenyl)aniline] came in with a viability at 48 h, 1 µM above 80%.

Molecule `Fc1cc2nc(-c3cccc(Nc4cnc(-c5ccncn5)cn4)c3)[nH]c2cc1F` [Example 297, N-(3-(5,6-difluoro-1H-benzo[d]imidazol-2-yl)phenyl)-5-(pyrimidin-4-yl)pyrazin-2-amine] gave a viability at 48 h, 10 µM above 80%.

`c1cc(Nc2ccc(-c3ccncc3)cc2)cc(-c2nc3ccccc3[nH]2)c1` [Example 33, N-[3-(1H-benzo[d]imidazol-2-yl)phenyl]-4-(pyridin-4-yl)aniline] registered a viability at 48 h, 1 µM of 50 to 80%.

For the molecule `Clc1cc2[nH]c(-c3cccc(Nc4cnc(-c5ccccn5)cn4)c3)nc2cn1` [Example 301, N-(3-(6-chloro-1H-imidazo[4,5-c]pyridin-2-yl)phenyl)-5-(pyridin-2-yl)pyrazin-2-amine], the viability at 48 h, 10 µM was above 80%.

Molecule `c1cnc(-c2ccc(Nc3cccc(-c4nc5ccccc5[nH]4)c3)nc2)nc1` [Example 69, N-(3-(1H-benzo[d]imidazol-2-yl)phenyl)-5-(pyrimidin-2-yl)pyridin-2-amine] showed a viability at 48 h, 1 µM above 80%.

Take `c1ccc(-c2ccc(Nc3cccc(-c4nc5ccccc5[nH]4)c3)cc2)cc1` [Example 19, N-[3-(1H-benzo[d]imidazol-2-yl)phenyl]-[1,1′-biphenyl]-4-amine]: the viability at 48 h, 1 µM was 50 to 80% and the viability at 48 h, 3 µM lay in the range of 50 to 80%.

`FC(F)(F)Oc1ccc2nc(-c3cccc(Nc4ncc(-c5cccnn5)cn4)c3)[nH]c2c1` [Example 295, 5-(pyridazin-3-yl)-N-(3-(6-(trifluoromethoxy)-1H-benzo[d]imidazol-2-yl)phenyl)pyrimidin-2-amine] showed a viability at 48 h, 10 µM above 80%.

In turn, `c1cnc(-c2cnc(Nc3cccc(-c4nc5ccccc5[nH]4)c3)nc2)nc1` [Example 71, N-[3-(1H-benzo[d]imidazol-2-yl)phenyl]-[2,5′-bipyrimidin]-2′-amine] displayed a viability at 48 h, 1 µM above 80% and a viability at 48 h, 3 µM of 50 to 80%.

For the molecule `Fc1cc2nc(-c3cccc(Nc4ccc(-c5ccncn5)cc4)c3)[nH]c2cc1F` [Example 95, 3-(5,6-difluoro-1H-benzo[d]imidazol-2-yl)-N-(4-pyrimidin-4-ylphenyl)aniline], the viability at 48 h, 1 µM was 50 to 80%.

`Fc1cc2nc(-c3cccc(Nc4ncc(-c5cccnn5)cn4)c3)[nH]c2cc1F` [Example 99, N-[3-(5,6-difluoro-1H-benzo[d]imidazol-2-yl)phenyl]-5-pyridazin-3-yl-pyrimidin-2-amine] showed a viability at 48 h, 1 µM above 80%; a viability at 48 h, 3 µM above 80%; a viability at 48 h, 10 µM above 80%.

On to `FC(F)(F)Oc1cc2nc(-c3cccc(Nc4ncc(-c5cccnn5)cn4)c3)[nH]c2cc1Cl` [Example 120, N-[3-[6-chloro-5-(trifluoromethoxy)-1H-benzo[d]imidazol-2-yl]phenyl]-5-pyridazin-3-yl-pyrimidin-2-amine], for which the viability at 48 h, 10 µM was above 80%.

For `Fc1cc2[nH]c(-c3cccc(Nc4ccc(-c5cccnn5)cc4)c3)nc2cc1C(F)(F)F` [Example 104, 3-[6-fluoro-5-(trifluoromethyl)-1H-benzo[d]imidazol-2-yl]-N-(4-pyridazin-3-ylphenyl)aniline], the viability at 48 h, 1 µM lay in the range of 50 to 80% and the viability at 48 h, 3 µM is 50 to 80%.

The molecule `c1cc(Nc2ncc(-c3cccnn3)cn2)cc(-c2nc3cnccc3[nH]2)c1` [Example 49, N-(3-{1H-imidazolo[4,5-c]pyridin-2-yl}phenyl)-5-(pyridazin-3-yl)pyrimidin-2-amine] showed a viability at 48 h, 1 µM above 80%; a viability at 48 h, 3 µM above 80%; a viability at 48 h, 10 µM above 80%.

In turn, `Fc1ccc2nc(-c3cccc(Nc4ccc(-c5ccccn5)cc4)c3)[nH]c2c1` [Example 92, 3-(6-fluoro-1H-benzo[d]imidazol-2-yl)-N-[4-(2-pyridyl)phenyl]aniline] returned a viability at 48 h, 1 µM of 50 to 80%.

`FC(F)Oc1ccc2nc(-c3cccc(Nc4cnc(-c5ccccn5)cn4)c3)[nH]c2c1` [Example 300, N-(3-(6-(difluoromethoxy)-1H-benzo[d]imidazol-2-yl)phenyl)-5-(pyridin-2-yl) pyrazin-2-amine] displayed a viability at 48 h, 10 µM above 80%.

Take `c1cc(Nc2ncc(-c3cccnn3)cn2)cc(-c2nc3ccccc3[nH]2)c1` [Example 53, N-[3-(1H-benzo[d]imidazol-2-yl)phenyl]-5-(pyridazin-3-yl)pyrimidin-2-amine]: the viability at 48 h, 1 µM was above 80%; the viability at 48 h, 3 µM fell in the range of 50 to 80%; the viability at 48 h, 10 µM was 50 to 80%.

`c1cc(Nc2ccc(-c3ccncn3)cn2)cc(-c2nc3ccccc3[nH]2)c1` [Example 68, N-[3-(1H-benzo[d]imidazol-2-yl)phenyl]-5-(pyrimidin-4-yl)pyridin-2-amine] returned a viability at 48 h, 1 µM of 50 to 80%.

Molecule `CC(C)(C)c1ccc2nc(-c3cccc(Nc4ccc(-c5cccnn5)cc4)c3)[nH]c2c1` [Example 107, 3-(6-tert-butyl-1H-benzo[d]imidazol-2-yl)-N-(4-pyridazin-3-ylphenyl)aniline] returned a viability at 48 h, 1 µM above 80%.

`FC(F)(F)c1ccc2nc(-c3cccc(Nc4ccc(-c5ncccn5)cn4)c3)[nH]c2c1` [Example 100, 5-pyrimidin-2-yl-N-[3-[6-(trifluoromethyl)-1H-benzo[d]imidazol-2-yl]phenyl]pyridin-2-amine]: the viability at 48 h, 1 µM fell in the range of 50 to 80%.

As for `COc1ccc2nc(-c3cccc(Nc4ncc(-c5cccnn5)cn4)c3)[nH]c2c1` [Example 108, N-[3-(6-methoxy-1H-benzo[d]imidazol-2-yl)phenyl]-5-pyridazin-3-yl-pyrimidin-2-amine], the viability at 48 h, 1 µM is above 80%; the viability at 48 h, 3 µM is above 80%; the viability at 48 h, 10 µM was above 80%.

`FC(F)(F)Oc1ccc2nc(-c3cccc(Nc4ccc(-c5ccncn5)cc4)c3)[nH]c2c1` [Example 109, N-(4-pyrimidin-4-ylphenyl)-3-[6-(trifluoromethoxy)-1H-benzo[d]imidazol-2-yl]aniline] displayed a viability at 48 h, 1 µM of 50 to 80%.

As usually defined, the viability is the share of living cells, or the viability signal relative to a control. High values mean less harm to the cells, low ones more harm to the cells.
